Source: patent US7871635B2, “Use of compound that inactivates protein kinase A in a composition containing a cosmetically acceptable medium for lightening the skin” (Societe d'Exploitation de Produits pour les Industries …, priority 2002, dated 2011)

Assays:
tyrosinase = assay: Study of phosphorylated tyrosinase activity (L-tyrosine to dopaquinone, 490 nm); type: biochemical, fungi; details: tyrosinase 66.66 IU/ml, tyrosine 0.2 mM, 10 minutes at 37° C.
Procedure: The tyrosinase used is a commercial product extracted from fungi. […] Sodium hydroxide has no effect on the parameter studied. […] Control cultures are incubated, in the absence of product, and in the presence of tyrosinase and L-tyrosine. Each test is performed in triplicate. After incubation for 10 minutes, the amount of dopaquinone […] formed is measured using a spectrophotometer at 490 nm. The results given in the table below are the means of the three tests performed for each of the products. They are expressed as IU/l of tyrosinase activity and as a percentage of inhibition of the enzymatic activity relative to the control.

[1] = tested on: B16/F1 melanocyte cultures; assay: Intracellular melanin content in B16/F1 melanocyte cultures; type: cell-based, mouse; details: 72 hours; for Intracellular melanin obtained: control 20 ± 4 μg/ml
Procedure: Mouse melanocytes of the B16/F1 line are inoculated in 96-well culture plates at a density of 1500 cells/well. […] The cells are used at 60% of confluence, i.e. 4 days after inoculation. The MCM medium has the following composition: […] N-Undecylenoylphenylalanine is diluted to 4 mg/ml in decinormal aqueous sodium hydroxide solution. It is tested at 40 μg/ml in the MCM medium. Sodium hydroxide has no effect on the parameters analyzed. […] Given its toxicity, it is not tested at 40 μg/ml. […] Control cultures are incubated, in the absence of product, in the MCM medium. These control cultures are prepared on each culture plate. Each test is performed six times. After incubation for 72 hours, a portion of the cell carpet (n=3) is rinsed with phosphate-buffered saline (PBS; pH=7.4), the composition of which is as follows: NaCl: 8 g/l, Na2HPO4: 1.15 g/l; […] The intracellular melanin is quantified by spectrophotometry at 450 nm. A melanin calibration range is prepared in parallel. The results are expressed as μg/ml of intracellular melanin and as a percentage of inhibition relative to the control group.

endogenous tyrosinase = assay: Phosphorylated tyrosinase activity in B16/F1 melanocyte lysates; type: cell-based, mouse; details: 72 hours; for Tyrosinase activity: control 9.8 ± 0.3 IU/ml
Procedure: Mouse melanocytes of the B16/F1 line are inoculated in 96-well culture plates at a density of 1500 cells/well. The cells are cultured in a culture medium (MCM medium) at 37° C. under a humid atmosphere containing 5% CO2. The cells are used at 60% of confluence, i.e. 4 days after inoculation.
The MCM medium has the following composition: DMEM medium (Dulbecco's Modified Eagle's Medium) containing 4.5 g/l of glucose supplemented with L-glutamine (2 mM), penicillin (50 IU/ml), streptomycin (50 μg/ml) and fetal calf serum (10% v/v).
N-Undecylenoylphenylalanine is diluted to 4 mg/ml in decinormal aqueous sodium hydroxide solution. […]
The melanocyte cultures are incubated in the presence of the test product or of the reference products for 72 hours at 37° C., under a humid atmosphere containing 5% CO2.
Control cultures are incubated, in the absence of product, in the MCM medium. These control cultures are prepared on each culture plate.
Each test is performed six times.
After incubation for 72 hours, the second portion of the cell carpet (n=3) is rinsed with PBS. The cells are lyzed with Triton™ X100 at a concentration of 0.1% (w/v) for 30 minutes at room temperature. The activity of the endogenous tyrosinase is evaluated by adding 0.1% (w/v) of L-dopa, followed by incubation for 3 hours at 37° C. in the absence of air and light. The dopaquinone formed by the reaction between the tyrosinase and the L-dopa is measured by spectrophotometry at 450 nm. A calibration range of purified tyrosinase is prepared in parallel.
The results are expressed as IU/ml of tyrosinase activity and as a percentage of inhibition relative to the control group.

[2] = tested on: B16/F1 melanocyte cultures; assay: Intracellular protein content (cytotoxicity) in B16/F1 melanocyte cultures; type: cell-based, mouse
Procedure: Mouse melanocytes of the B16/F1 line are inoculated in 96-well culture plates at a density of 1500 cells/well. […] The cells are used at 60% of confluence, i.e. 4 days after inoculation. The MCM medium has the following composition: […] N-Undecylenoylphenylalanine is diluted to 4 mg/ml in decinormal aqueous sodium hydroxide solution. It is tested at 40 μg/ml in the MCM medium. Sodium hydroxide has no effect on the parameters analyzed. […] Given its toxicity, it is not tested at 40 μg/ml. […] Control cultures are incubated, in the absence of product, in the MCM medium. These control cultures are prepared on each culture plate. Each test is performed six times. This assay allows the cytotoxicity of the test products to be evaluated. It is performed in cell lysates prepared as described in the preceding paragraph. The protein assay is performed according to the Coomassie blue method described by: “Bradford M.; Anal. Biochem., 72, 1976, 248-254”. The measurement is performed by spectrophotometry at 640 nm. A bovine serum albumin (BSA) calibration range is prepared in parallel. The results are expressed as mg/ml of proteins and as a percentage of inhibition relative to the control group.

[3] = tested on: Pigmented human epidermides (phototype IV); assay: Intracellular melanin content in reconstructed human epidermides; type: cell-based; details: topical, 4 days; for Intracellular melanin: control 347 ± 2 μg/ml
Procedure: Pigmented human epidermides (phototype IV) supplied by Skinethic, of 0.63 cm^2, are reconstructed from a coculture of normal human keratinocytes (skin of the forearm, donor, 2nd passage) and from normal human melanocytes (skin of the forearm, donor of phototype IV, 3rd passage). The keratinocyte/melanocyte ratio is 10:1. The cocultures are inoculated onto inert polycarbonate filters. They are cultured for 10 days in the medium supplied by Skinethic, consisting of MCDB 153 medium supplemented with 5 μg/ml of insulin, 1.5 mM of calcium and growth factors. […] The epidermides are cultured in 6-well plates containing 1 ml of the medium described above. […] The application is performed every day for 4 consecutive days. The incubation medium of the reconstructed epidermides is renewed every day for 4 consecutive days. Control epidermides are treated with a formulation free of active principle. Each test is performed in duplicate. […] Dermatol., 105, 1995, 361-366. The samples are centrifuged for 10 minutes at 10 000 rpm. The extracted intracellular […] measured by spectrophotometry at 500 nm. A melanin calibration range is prepared in parallel. The results are expressed as […] of intracellular melanin and as a percentage of inhibition relative to the control group.

[4] = Mus musculus, B16-F1, at 40 μg/ml, read-out: Inhibition of intracellular melanin production
[5] = at 40 μg/ml, 72 hours, control 0.45 ± 0.01

SMILES | Percentage of inhibition of tyrosinase activity with the test products relative to the control (tyrosinase; at 0.1 mg/ml) [%] | Percentage of inhibition of tyrosinase activity with the test products relative to the control (tyrosinase; at 1 mg/ml) [%] | inhibition at 40 µg/mL [1, 4] [%] | Intracellular melanin obtained ([1]; at 40 μg/ml) [µg/mL] | Inhibition of tyrosinase activity (endogenous tyrosinase; at 40 μg/ml) [%] | Tyrosinase activity (endogenous tyrosinase; at 40 μg/ml) [IU/ml] | Total proteins [2, 5] [mg/mL] | Intracellular melanin ([3]; formulated at 1% (w/v)) [µg/mL] | Intracellular melanin ([3]; formulated at 3% (w/v)) [µg/mL] | inhibition at 5 µg/mL ([1]; Mus musculus, B16-F1, at 5 μg/ml, read-out: Inhibition of intracellular melanin production) [%] | Intracellular melanin obtained ([1]; at 5 μg/ml) [µg/mL] | Inhibition of tyrosinase activity (endogenous tyrosinase; at 5 μg/ml) [%] | Tyrosinase activity (endogenous tyrosinase; at 5 μg/ml) [IU/ml] | Inhibition of protein quantity ([2]; mouse, 72 h, 5 μg/ml) [%] | Total proteins ([2]; mouse, 72 h, 5 μg/ml) [mg/mL] | Intracellular melanin ([3]; formulated at 0.1% (w/v)) [µg/mL] | Total proteins ([2]; mouse, 72 h, 40 μg/ml) [mg/mL] | Inhibition of protein quantity ([2]; at 40 μg/ml, 72 hours) [%] | Inhibition of the amount of intracellular melanin ([3]; formulated at 3% (w/v)) [%] | Inhibition of the amount of intracellular melanin ([3]; formulated at 3% (w/v), listed as N-undecylenoylphenylalanine) [%]
OC[C@H]1O[C@@H](Oc2ccc(O)cc2)[C@H](O)[C@@H](O)[C@@H]1O [Arbutin, arbutin] | 73 | 80 | 19 | 16 ± 2 | 23 | 7.6 ± 1.1 | 0.43 ± 0.01 | 242 ± 46 | 263 ± 16 | – | – | – | – | – | – | – | – | – | – | –
Oc1ccc(O)cc1 [Hydroquinone, hydroquinone] | 78 | 80 | – | – | – | – | – | – | – | 100 | 0.2 ± 0.1 | 69 | 3.0 ± 0.3 | 38 | 0.28 ± 0.01 | 317 ± 0 | – | – | – | –
O=c1cc(CO)occ1O [Kojic acid, kojic acid] | – | – | 17 | 17 ± 1 | – | – | – | 273 ± 2 | 234 ± 19 | – | – | – | – | – | – | – | 0.41 ± 0.02 | – | – | –
C=CCCCCCCCCC(=O)NC(Cc1ccccc1)C(=O)O (centres unmarked) [N-Undecylenoylphenylalanine, N-(ω-undecylenoyl)phenylalanine] | 80 | 100 | 66 | 7 ± 3 | 67 | 3.2 ± 0.6 | 0.38 ± 0.01 | 264 ± 9 | 264 ± 11 | – | – | – | – | – | – | – | – | 17 | 24 | 24
